Patent US9440978B2, “Imidazolo-, oxazolo-, and thiazolopyrimidine modulators of TRPV1” (Janssen Pharmaceutica NV, priority 2007, dated 2016)

Key:
rat TRPV1 = target: T1, rat TRPV1 (Rattus norvegicus, UniProt O35433); test: Block of capsaicin-induced Ca2+ influx, rat assay (rTRPV1/HEK293, FLIPR); format: cell-based; conditions: HEK293 cells transfected with rat TRPV1; capsaicin challenge; mean; > value = solubility limit in assay medium; read-out: Rat IC50
T1 construct: expressed in transfected cells; host or cells: HEK293
Method: (§1) HEK293 cells were transfected with human TRPV1 cloned in pcDNA3.1zeo(+) using the Effectene non-liposomal lipid based transfection kit (Qiagen) (hTRPV1/HEK293). hTRPV1/HEK293 cells were routinely grown as monolayers under selection in zeocin (200 μg/mL; Invitrogen) in Dulbecco's Modified Eagle Medium (DMEM, Gibco BRL) supplemented with 10% fetal bovine serum, and penicillin/streptomycin (50 units/mL) in 5% CO2 at 37° C. Cells were passaged frequently, every 3-5 days, to avoid overgrowth, depletion of essential medium components, or acidic medium exposure. Cells were passaged using a brief wash in 0.05% trypsin with 1 mM EDTA, followed by dissociation in divalent-free phosphate-buffered saline (Hyclone #SH30028.02). […] The assay buffer was composed of 130 mM NaCl, 2 mM KCl, 2 mM MgCl2, 10 mM HEPES, 5 mM glucose, and either 2 mM or 20 μM CaCl2. On the day of the experiment, the culture medium was replaced with 2 mM calcium assay buffer using an automated plate washer (ELx405; Biotek, VT). […] After loading the cells, the dye solution was replaced with 50 μL/well of 20 μM calcium assay buffer using the ELx405 plate washer. Test compounds (50 μL/well) were added to the plate and incubated for 30 min. Intracellular Ca^2+ levels were subsequently assayed using a Fluorometric Imaging Plate Reader (FLIPR™ instrument, Molecular Devices, CA) to simultaneously monitor Fluo-3 fluorescence in all wells (λexcitation=488 nm, λemission=540 nm) during challenge with agonist (capsaicin). The IC50 values were determined. […] The contents of the wells were mixed 3 times (40 μL mix volume) immediately after the additions were made. Concentration-dependence of block was determined by exposing each well of cells in duplicate rows of a 96-well plate to a serial dilution of test compound. The concentration series usually started at 10 μM with a three-fold serial decrement in concentration. The magnitude of the capsaicin response was determined by measuring the change in fluo3 fluorescence before and 100 seconds after the addition of the agonist. Data were analyzed using a non-linear regression program (Origin; OriginLab, MA).
This assay was performed similarly to the human assay described above, but using HEK293 cells transfected with rat TRPV1 (rTRPV1/HEK293).
(§2) IC50 values shown are the average (mean) of the results obtained. […] Compounds were tested as in the free base, trifluoroacetic acid salt, or hydrochloride salt form.

human TRPV1 = target: T2, human TRPV1 (Homo sapiens, UniProt Q8NER1); test: Block of capsaicin-induced Ca2+ influx, human assay (hTRPV1/HEK293, FLIPR); format: cell-based; conditions: HEK293 cells transfected with human TRPV1; 150 nM capsaicin challenge; mean; > value = solubility limit in assay medium
T2 construct: expressed in transfected cells; host or cells: HEK293
Method: as §1, §2

T1 sequence (O35433 whole entry): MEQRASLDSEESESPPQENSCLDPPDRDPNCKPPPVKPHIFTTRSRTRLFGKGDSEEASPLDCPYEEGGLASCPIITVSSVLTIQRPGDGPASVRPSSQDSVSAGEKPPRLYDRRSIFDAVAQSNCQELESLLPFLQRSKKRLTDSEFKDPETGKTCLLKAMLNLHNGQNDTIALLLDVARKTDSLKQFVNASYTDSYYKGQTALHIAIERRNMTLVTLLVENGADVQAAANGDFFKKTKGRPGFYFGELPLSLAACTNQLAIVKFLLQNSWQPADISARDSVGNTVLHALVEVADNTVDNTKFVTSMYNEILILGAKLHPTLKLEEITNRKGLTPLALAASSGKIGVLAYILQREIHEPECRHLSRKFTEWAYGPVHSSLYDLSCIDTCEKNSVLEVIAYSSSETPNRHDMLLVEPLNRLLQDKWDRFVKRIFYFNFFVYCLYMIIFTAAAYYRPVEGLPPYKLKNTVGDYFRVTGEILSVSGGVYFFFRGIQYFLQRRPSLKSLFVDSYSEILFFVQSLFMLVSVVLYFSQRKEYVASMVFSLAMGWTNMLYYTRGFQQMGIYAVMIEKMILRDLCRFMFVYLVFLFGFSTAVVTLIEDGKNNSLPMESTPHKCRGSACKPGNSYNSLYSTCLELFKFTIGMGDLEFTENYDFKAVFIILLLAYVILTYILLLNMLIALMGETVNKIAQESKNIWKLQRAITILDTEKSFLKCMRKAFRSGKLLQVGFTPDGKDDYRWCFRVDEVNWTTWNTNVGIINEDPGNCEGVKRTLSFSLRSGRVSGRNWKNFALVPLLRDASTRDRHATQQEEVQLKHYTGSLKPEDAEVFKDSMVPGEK
T2 sequence (Q8NER1 whole entry): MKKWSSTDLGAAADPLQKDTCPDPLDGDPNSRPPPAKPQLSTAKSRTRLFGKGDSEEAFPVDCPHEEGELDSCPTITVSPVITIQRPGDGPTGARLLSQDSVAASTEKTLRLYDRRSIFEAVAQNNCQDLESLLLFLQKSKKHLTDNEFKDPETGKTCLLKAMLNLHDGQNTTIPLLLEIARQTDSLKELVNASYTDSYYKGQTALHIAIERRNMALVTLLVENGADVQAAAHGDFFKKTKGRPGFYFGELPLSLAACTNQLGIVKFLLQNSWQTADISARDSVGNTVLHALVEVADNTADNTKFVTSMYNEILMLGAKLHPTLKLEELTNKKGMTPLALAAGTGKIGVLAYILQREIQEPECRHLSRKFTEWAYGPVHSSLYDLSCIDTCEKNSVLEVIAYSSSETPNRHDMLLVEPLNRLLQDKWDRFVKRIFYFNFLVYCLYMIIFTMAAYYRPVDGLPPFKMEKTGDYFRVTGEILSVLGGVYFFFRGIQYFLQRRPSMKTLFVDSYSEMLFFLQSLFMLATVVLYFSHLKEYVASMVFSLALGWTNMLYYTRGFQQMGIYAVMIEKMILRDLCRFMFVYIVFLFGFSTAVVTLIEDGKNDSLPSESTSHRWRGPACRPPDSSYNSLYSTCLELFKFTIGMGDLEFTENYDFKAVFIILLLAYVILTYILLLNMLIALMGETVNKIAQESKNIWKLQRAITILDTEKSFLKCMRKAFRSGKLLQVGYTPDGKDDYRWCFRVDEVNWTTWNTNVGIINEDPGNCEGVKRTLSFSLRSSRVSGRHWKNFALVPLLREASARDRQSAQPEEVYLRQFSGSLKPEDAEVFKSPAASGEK

Row | Structure (SMILES) | IC50 (rat TRPV1) | IC50 (human TRPV1)
1 | CS(=O)(=O)c1nc(Nc2ccc(C(F)(F)F)cc2)c2nc(Cc3c(Cl)cccc3Cl)sc2n1 [Example 62, [2-(2,6-Dichloro-benzyl)-5-methanesulfonyl-thiazolo[5,4-d]pyrimidin-7-yl]-(4-trifluoromethyl-phenyl)-amine] | 32 nM | 72 nM
2 | FC(F)(F)c1ccc(Nc2ncnc3sc(Cc4c(Cl)cccc4Cl)nc23)nc1 [Example 94, [2-(2,6-Dichloro-benzyl)-thiazolo[5,4-d]pyrimidin-7-yl]-(5-trifluoromethyl-pyridin-2-yl)-amine] | 246 nM | 924 nM
3 | CC(C)(C)c1ccc(Nc2ncnc3sc(Cc4c(Cl)cccc4Cl)nc23)cc1 [Example 25, N-(4-tert-Butylphenyl)-2-(2,6-dichlorobenzyl)[1,3]thiazolo[5,4-d]pyrimidin-7-amine] | 11 nM | 54 nM
4 | Cc1nc(Nc2ccc(C(F)(F)F)cn2)c2nc(Cc3c(Cl)cccc3Cl)sc2n1 [Example 97, [2-(2,6-Dichloro-benzyl)-5-methyl-thiazolo[5,4-d]ovrimidin-7-yl]-(5-trifluoromethyl-hyridin-2-yl)-amine] | 158 nM | 1030 nM
5 | Cc1ccccc1Cc1nc2c(Nc3ccc(C(F)(F)F)nc3)ncnc2s1 [Example 18, 2-(2-Methylbenzyl)-N-[6-(trifluoromethyl)pyridin-3-yl][1,3]thiazolo[5,4-d]pyrimidin-7-amine] | 154 nM | 85 nM
6 | CC(C)(C(N)=O)c1ccc(Nc2ncnc3sc(Cc4c(Cl)cccc4Cl)nc23)cc1 [Example 47, 2-(4-{[2-(2,6-Dichlorobenzyl)[1,3]thiazolo[5,4-d]pyrimidin-7-yl]amino}phenyl)-2-methylpropanamide] | 4490 nM | 8900 nM
7 | Cc1ccc(Nc2ncnc3sc(Cc4c(Cl)cccc4Cl)nc23)cc1 [Example 46, 2-(2,6-Dichlorobenzyl)-N-(4-methylphenyl)[1,3]thiazolo[5,4-d]pyrimidin-7-amine] | 52 nM | > 6670 nM
8 | Cc1cccc(C)c1Cc1nc2c(Nc3ccc(S(C)(=O)=O)cc3)ncnc2s1 [Example 61, 2-(2,6-Dimethylbenzyl)-N-[4-(methylsulfonyl)phenyl][1,3]thiazolo[5,4-d]pyrimidin-7-amine] | 253 nM | 496 nM
9 | FC(F)(F)c1ccc(Nc2nc(NC3CC3)nc3sc(Cc4c(Cl)cccc4Cl)nc23)cc1 [Example 78, N^5-Cyclopropyl-2-(2,6-dichloro-benzyl)-N^7-(4-trifluoromethyl-phenyl)-thiazolo[5,4-d]pyrimidine-5,7-diamine] | 215 nM | 316 nM
10 | CC(C)Oc1nc(Nc2ccc(C(F)(F)F)cc2)c2nc(Cc3c(Cl)cccc3Cl)sc2n1 [Example 102, [2-(2,6-Dichloro-benzyl)-5-isopropoxy-thiazolo[5,4-d]pyrimidin-7-yl]-(4-trifluoromethyl-phenyl)-amine] | 74 nM | 188 nM
11 | Cc1cccc(C)c1Cc1nc2c(Nc3ccc(S(=O)(=O)N4CCOCC4)cc3)ncnc2s1 [Example 60, 2-(2,6-Dimethylbenzyl)-N-[4-(morpholin-4-ylsulfonyl)phenyl][1,3]thiazolo[5,4-d]pyrimidin-7-amine] | 204 nM | 209 nM
12 | FC(F)(F)c1ccc(Nc2nc(NC3CCC3)nc3sc(Cc4c(Cl)cccc4Cl)nc23)cc1 [Example 79, N^5-Cyclobutyl-2-(2,6-dichloro-benzyl)-N^7-(4-trifluoromethyl-phenyl)-thiazolo[5,4-d]pyrimidine-5,7-diamine] | 32 nM | 104 nM
13 | FC(F)(F)c1ccc(Nc2ncnc3sc(Cc4cccc(Cl)c4)nc23)cn1 [Example 53, 2-(3-Chlorobenzyl)-N-[6-(trifluoromethyl)pyridin-3-yl][1,3]thiazolo[5,4-d]pyrimidin-7-amine] | 118 nM | 336 nM
14 | CS(=O)(=O)c1ccc(Nc2ncnc3sc(Cc4ccccc4C(F)(F)F)nc23)cc1 [Example 51, N-[4-(Methylsulfonyl)phenyl]-2-[2-(trifluoromethyl)benzyl][1,3]thiazolo[5,4-d]pyrimidin-7-amine] | 39 nM | 202 nM
15 | FC(F)(F)c1ccc(Nc2ncnc3sc(Cc4c(Cl)cccc4Cl)nc23)cn1 [Example 8, [2-(2,6-Dichloro-benzyl)-thiazolo[5,4-d]pyrimidin-7-yl]-(6-trifluoromethyl-pyridin-3-yl)-amine] | 55 nM | 30 nM
16 | CC(C)CN(CC(C)C)c1nc(Nc2ccc(C(F)(F)F)cc2)c2nc(Cc3c(Cl)cccc3Cl)sc2n1 [Example 80, 2-(2,6-Dichloro-benzyl)-N^5,N^5-diisobutyl-N^7-(4-trifluoromethyl-phenyl)-thiazolo[5,4-d]pyrimidine-5,7-diamine] | 4040 nM | 4650 nM
17 | FC(F)(F)c1ccc(Nc2ncnc3sc(Cc4cccc(Cl)c4)nc23)cc1 [Example 54, 2-(3-Chlorobenzyl)-N-[4-(trifluoromethyl)phenyl][1,3]thiazolo[5,4-d]pyrimidin-7-amine] | 88 nM | 252 nM
18 | CC(C)(C)c1ccc(Nc2ncnc3sc(Cc4ccccc4C(F)(F)F)nc23)cc1 [Example 50, N-(4-tert-Butylphenyl)-2-[2-(trifluoromethyl)benzyl][1,3]thiazolo[5,4-d]pyrimidin-7-amine] | 6 nM | 34 nM
19 | FC(F)(F)c1cnc(Nc2ncnc3sc(Cc4c(Cl)cccc4Cl)nc23)cn1 [Example 93, [2-(2,6-Dichloro-benzyl)-thiazolo[5,4-d]pyrimidin-7-yl]-(5-trifluoromethyl-pyrazin-2-yl)-amine] | 231 nM | 276 nM
20 | CC1CCCN1c1nc(Nc2ccc(C(F)(F)F)cc2)c2nc(Cc3c(Cl)cccc3Cl)sc2n1 (stereo not shown) [Example 64, [2-(2,6-Dichloro-benzyl)-5-(2-methyl-pyrrolidin-1-yl)-thiazolo[5,4-d]pyrimidin-7-yl]-(4-trifluoromethyl-phenyl)-amine] | 323 nM | 466 nM
21 | FC(F)(F)c1ccc(Nc2ncnc3sc(Cc4ccccc4I)nc23)cc1 [Example 4, [2-(2-Iodo-benzyl)-thiazolo[5,4-d]pyrimidin-7-yl]-(4-trifluoromethyl-phenyl)-amine] | 8 nM | 22 nM
22 | FC(F)(F)c1ccc(Nc2ncnc3sc(Cc4ccccc4)nc23)cc1 [Example 32, 2-Benzyl-N-[4-(trifluoromethyl)phenyl][1,3]thiazolo[5,4-d]pyrimidin-7-amine] | 55 nM | 2920 nM
23 | N#Cc1ccccc1Cc1nc2c(Nc3ccc(C(F)(F)F)cc3)ncnc2s1 [Example 100, 2-[7-(4-Trifluoromethyl-phenylamino)-thiazolo[5,4-d]pyrimidin-2-ylmethyl]-benzonitrile] | 62 nM | 126 nM
24 | Fc1ccc(Nc2ncnc3sc(Cc4c(Cl)cccc4Cl)nc23)cc1 [Example 39, 2-(2,6-Dichlorobenzyl)-N-(4-fluorophenyl)[1,3]thiazolo[5,4-d]pyrimidin-7-amine] | 189 nM | 225 nM
25 | COc1ccc(Nc2ncnc3sc(Cc4c(Cl)cccc4Cl)nc23)cc1 [Example 37, 2-(2,6-Dichlorobenzyl)-N-(4-methoxyphenyl)[1,3]thiazolo[5,4-d]pyrimidin-7-amine] | 241 nM | 328 nM
26 | Clc1cccc(Cl)c1Cc1nc2c(Nc3ccccc3)ncnc2s1 [Example 43, 2-(2,6-Dichlorobenzyl)-N-phenyl[1,3]thiazolo[5,4-d]pyrimidin-7-amine] | 167 nM | 269 nM
27 | O=S(=O)(c1ccc(Nc2ncnc3sc(Cc4ccccc4C(F)(F)F)nc23)cc1)N1CCOCC1 [Example 52, N-[4-(Morpholin-4-ylsulfonyl)phenyl]-2-[2-(trifluoromethyl)benzyl][1,3]thiazolo[5,4-d]pyrimidin-7-amine] | 44 nM | 59 nM
28 | CS(=O)(=O)c1ccc(Nc2ncnc3sc(Cc4c(Cl)cccc4Cl)nc23)cc1 [Example 13, [2-(2,6-Dichloro-benzyl)-thiazolo[5,4-d]pyrimidin-7-yl]-(4-methanesulfonyl-phenyl)-amine] | 57 nM | 190 nM
29 | Cc1ccccc1Cc1nc2c(Nc3ccc(C(F)(F)F)cc3)ncnc2s1 [Example 17, 2-(2-Methylbenzyl)-N-[4-(trifluoromethyl)phenyl][1,3]thiazolo[5,4-d]pyrimidin-7-amine] | 146 nM | 147 nM
